Experimental data as given in patent US20220143003A1, “COMPOSITIONS AND METHODS TO TREAT NON-ALCOHOLIC FATTY LIVER DISEASES (NAFLD)” (Coherus Biosciences, Inc., priority 2018, published 2022).
Entries after “also recorded” stand apart in the source; their conditions may differ.

Experiments:
Format in all cases: in vivo, male C57BL/6JRj mice
DIO-NASH mice [1] = experiment: Intraperitoneal insulin tolerance test (IPITT), week 10; design: Area under the curve 0-180 min IPITT (blood glucose): unit not given here; details: for Area under the curve 0-180 min IPITT (blood glucose): week 10, 6 h fasted, i.p. insulin 0.5 U/kg, group mean
Protocol: Mice were fasted 6 hours prior to intraperitoneal insulin administration (0.5 Unit/kg, rapid acting insulin NovoRapid). At the various time points after insulin administration, blood samples were collected into heparinized glass capillary tubes and immediately suspended in glucose/lactate system solution buffer (EKF-diagnostics, Germany). Blood glucose (BG) was measured using a BIOSEN c-Line glucose meter (EKF-diagnostics, Germany) according to the manufacturer's instructions. After the last blood sample, the animals were returned to the normal feeding schedule. The order of the animals was randomized before the procedure and mice were dosed with compounds just after the −60 minutes blood sample.
Intraperitoneal insulin tolerance test (IPITT) in week 10. Left: Temporal course of blood glucose levels during 6 h fasted IPITT. Intraperitoneal insulin bolus (0.5 U/kg) at t=0 min.
Area under the curve calculated from the temporal course from 0-180 min PITT Values expressed as mean of n=12-14+SEM.

DIO-NASH mice [2] = experiment: Plasma triglycerides (TG) at termination; details: group mean
Protocol: (§1) For plasma biochemistry, tail blood was drawn directly through the capillary of a Microvette/Vacuette of the right dimension and anticoagulant and mixed by inversion 5 times. Blood was placed at 4° C. until centrifugation at 3000×g for 10 minutes at 4° C. The plasma supernatants were transferred to new tubes and immediately frozen on dry ice and stored at −80° C. until analysis.
(§2) Mouse insulin was measured in single determinations using the MSD platform (Meso Scale Diagnostics).
Plasma triglycerides (TG) at termination (mmol/L). Values expressed as mean of n=12-14+SEM.

DIO-NASH mice [3] = experiment: NAFLD Activity Score (steatosis, lobular inflammation, ballooning), pre- to post-biopsy histopathological scoring; details: for NAFLD activity score (NAS), effect in words: 12 weeks of treatment, compared to NASH vehicle+vehicle, summary of data; for Delta change in NAFLD activity score from pre- to post biopsy: group mean
Protocol: Three weeks prior to study start, a pre-biopsy was performed to confirm NASH and for study inclusion of NASH-affected mice only. Briefly, mice were anesthetized with isoflurane (2-3%) in 100% oxygen. A small abdominal incision was made in the midline and the left lateral lobe of the liver exposed. A cone shaped wedge of liver tissue (approximately 50 mg) was excised from the distal portion of the lobe and fixated in 10% neutral buffered formalin (4% formaldehyde) for histopathological analyses. The cut surface of the liver was instantly electro-coagulated using bipolar coagulation (ERBE VIO 100 electrosurgical unit). The liver was returned to the abdominal cavity, the abdominal wall sutured, and the skin closed with staplers. For post-operative recovery, mice received carprofen (5 mg/ml-0.01 ml/10 g) administered subcutaneously on the day of operation and on post-operation day 1 and 2.
For Hematoxylin & Eosin (HE) staining, slides were incubated in Mayer's Hematoxylin, washed in tap water, stained in Eosin Y solution, […], mounted with Pertex and allowed to dry before scanning.
For scoring of NAFLD Activity Score (NAS) and fibrosis stage, HE and Sirius red stained liver sections, respectively, were scored by a histopathology specialist as outlined in Table 10 using the clinical criteria outlined by Kleiner et al. (2005). Total NAS score represents the sum of scores for steatosis, lobular inflammation, and ballooning degeneration scores, and ranges from 0-8.
For steatosis score, percentage refers to percentage of hepatocytes affected by steatosis as evaluated on low to medium power examination.
For lobular inflammation, inflammation is evaluated by counting the number of inflammatory foci per field using a 200× magnification (min. 5 fields per animal). A focus is defined as a cluster, not a row, of >3 inflammatory cells. Acidophil bodies are not included in this assessment, nor is portal inflammation.
For hepatocellular ballooning degeneration, degenerated hepatocytes with a cleared cytoplasm, enlargement, swelling, rounding and reticulated cytoplasm were identified.
Delta change in NAFLD activity score from pre-to post biopsy. Values expressed as mean of n=12-14+SEM.

DIO-NASH mice [4] = experiment: Plasma urea at termination; details: for Plasma urea at termination: group mean
Protocol: as §1, §2
Plasma urea at termination (mmol/L). Values expressed as mean of n=12-14+SEM.

DIO-NASH mice [5] = experiment: Liver Collagen 1A1 (Col1a1) IHC quantified by morphometry; details: for Relative terminal liver Col1a1 by morphometry / Total terminal Col1a1 (% fractional area multiplied with liver weight): group mean
Protocol: After surgery, the animals were evaluated daily on general health and body weight. […] The pre-biopsy was analyzed to evaluate liver steatosis score and fibrosis stage for study inclusion as outlined by Kleiner et al. (2005) (Table 1). In addition, liver Collagen 1a1 (Col1a1) quantified by morphometry was used to perform a stratified randomization of NASH-affected animals into study groups (see description of histopathological stains and analyses below).
Protein markers of fibrosis (Col1a1), fibrogenesis (α-SMA) and inflammation (Gal-3) were assessed by immunohistochemistry. α-SMA and collagen type I increase in regulation of quiescent hepatic stellate cell activation into myofibroblast-like cells where activated hepatic stellate cells are the main collagen producing cells in the liver (Carpino et al 2005, Hou and Syn 2018) whereas Gal-3 is involved in mediating inflammatory response and considered as a macrophage activation marker (Sciacchitano et al, 2018). For morphometric quantification of liver Col1a1 (using antibody from Southern Biotech, Cat. #1310-01), alpha-smooth muscle actin (α-SMA; using antibody from Abcam, Cat. #Ab124964) and Galectin-3 (using antibody from Biolegend, Cat. #125402), IHC staining was performed using standard procedures. Briefly, after antigen retrieval and blocking of endogenous peroxidase activity, slides were incubated with primary antibody. For all IHC stains, the primary antibody was detected using a polymeric HRP-linker antibody conjugate and visualized using DAB as chromogen. Finally, sections were counterstained in hematoxylin and cover-slipped before scanning.
Quantitative assessment of immunoreactivity is evaluated as follows. IHC-positive staining is quantified by image analysis using the Visiomorph software (Visiopharm, Denmark). Visiomorph protocols are designed to analyze the virtual slides in two steps: 1. Crude detection of tissue at low magnification (1× objective). The liver capsule is excluded. 2. Detection of IHC-positive staining (e.g. green; collagen 1 IHC), tissue (e.g. red) and fat (e.g. pink) at high magnification (10×objective). The quantitative estimate of IHC-positive staining is calculated as an area fraction (AF) according to the following formula:
Liver fibrosis (Col1a1%) at baseline. Values expressed as mean of n=12-14+SEM.
Terminal liver Collagen 1A1 (Col1a1) was quantified by morphometry. Relative Terminal liver Col1a1 (% fractional area) is expressed as mean of n=12-14+SEM.
Total terminal Col1a1 values are in milligrams (% fractional area multiplied with liver weight) and expressed as mean of n=12-14+SEM.

[6] = CHS-131 High dose (alone or combined)
[7] = DIO-NASH mice, compared to vehicle only, non-significant

Plasma urea at termination (DIO-NASH mice [4]; [6])	Structure (SMILES)	Area under the curve 0-180 min IPITT (blood glucose) (DIO-NASH mice [1]; [6])	Plasma triglycerides (TG) at termination (DIO-NASH mice [2]; [6])	NAFLD activity score (NAS), effect in words (DIO-NASH mice [3]; DIO-NASH mice)	Delta change in NAFLD activity score from pre- to post biopsy (DIO-NASH mice [3]; [6])	Relative terminal liver Col1a1 by morphometry (DIO-NASH mice [5]; [6])	Total terminal Col1a1 (% fractional area multiplied with liver weight) (DIO-NASH mice [5]; [6])	other results
7.12 mmol/L	O=S(=O)(Nc1cc(Cl)c(Oc2cnc3ccccc3c2)c(Cl)c1)c1ccc(Cl)cc1Cl [CHS-131]	767	0.651 mmol/L	reduced NAS; also recorded: significant improvement	−0.77	6.77 % fractional area	220 milligrams	Insulin sensitization, effect in words (DIO-NASH mice [1]; DIO-NASH mice, 12 weeks of treatment, summary of data): significant improvement; Decrease of insulin resistance (DIO-NASH mice [1]; DIO-NASH mice, compared to DIO mice administered vehicle only, significant, not in a dose response manner): 15%; Area under the curve 0-180 min IPITT (blood glucose) (DIO-NASH mice [1]; CHS-131 Low dose): 758; Plasma triglycerides (TG) at termination (DIO-NASH mice [2]; CHS-131 Low dose): 0.715 mmol/L; Improvement of average NAFLD activity score (NAS) post-baseline (DIO-NASH mice [3]; DIO-NASH mice, CHS-131 monotherapy, significant, on average): more than 1 unit; Improvement of ballooning (DIO-NASH mice [3]; [7]): ~10%; Improvement of steatosis (DIO-NASH mice [3]; [7]): approximately 30%; Improvement of lobular inflammation (DIO-NASH mice [3]; DIO-NASH mice, compared to vehicle only, non-significant (p=0.07)): 50%; NAFLD score: mice with improvement (DIO-NASH mice [3]; DIO-NASH mice, post- vs pre-study biopsy, significant): 7/13; Delta change in NAFLD activity score from pre- to post biopsy (DIO-NASH mice [3]; CHS-131 Low dose): −0.23; Hemodilution, assessed by urea, effect in words (DIO-NASH mice [4]; DIO-NASH mice, compared to DIO mice administered vehicle only): No difference; Plasma urea at termination (DIO-NASH mice [4]; CHS-131 Low dose): 7.4 mmol/L; Decrease of terminal Collagen 1a1 (marker of fibrosis) (DIO-NASH mice [5]; DIO-NASH mice, compared to vehicle alone, trend): 15%; Relative terminal liver Col1a1 by morphometry (DIO-NASH mice [5]; CHS-131 Low dose): 6.64 % fractional area; Total terminal Col1a1 (% fractional area multiplied with liver weight) (DIO-NASH mice [5]; CHS-131 Low dose): 213 milligrams
8.01 mmol/L	CSc1ccc(C(=O)/C=C/c2cc(C)c(OC(C)(C)C(=O)O)c(C)c2)cc1 [Elafibranor, reference compound]	757	0.525 mmol/L	–	−2.00	6.27 % fractional area	270 milligrams	–
6.77 mmol/L	OC[C@H]1O[C@@H](c2ccc(Cl)c(Cc3ccc(O[C@H]4CCOC4)cc3)c2)[C@H](O)[C@@H](O)[C@@H]1O [Empagliflozin, reference compound]	723	0.738 mmol/L	positive trend for improvement	−0.31	7.31 % fractional area	250 milligrams	–
